Earlier results as cited in paper PMC4085797, “Synthetic Inositol Phosphate Analogs Reveal that PPIP5K2 Has a Surface-Mounted Substrate Capture Site that Is a Target for Drug Discovery” (Chemistry & Biology, 2014).
Residue numbers refer to the chain shown, from its start.

Tests used:
human IP6K2 = biological target: T1, human IP6K2 (Homo sapiens, UniProt Q9UHH9); design: method as in Saiardi et al., 2000; details: ref Saiardi et al., 2000; cited from earlier work
T1 construct: Full-length human IP6K2, the kinase domain of human PPIP5K2; made in house
T1 sequence (Q9UHH9 1-426): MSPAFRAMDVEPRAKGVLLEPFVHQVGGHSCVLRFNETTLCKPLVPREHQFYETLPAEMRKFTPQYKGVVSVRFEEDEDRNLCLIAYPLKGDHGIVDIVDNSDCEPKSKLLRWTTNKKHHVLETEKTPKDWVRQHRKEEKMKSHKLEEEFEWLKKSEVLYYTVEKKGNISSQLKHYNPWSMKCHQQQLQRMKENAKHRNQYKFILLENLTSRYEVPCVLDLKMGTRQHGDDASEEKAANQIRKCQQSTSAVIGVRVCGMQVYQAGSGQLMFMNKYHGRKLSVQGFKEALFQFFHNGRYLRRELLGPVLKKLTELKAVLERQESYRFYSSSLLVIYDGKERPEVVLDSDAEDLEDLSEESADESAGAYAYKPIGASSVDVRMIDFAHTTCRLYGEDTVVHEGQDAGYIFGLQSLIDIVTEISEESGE

PPIP5K2^KD R213A mutant = biological target: T2, PPIP5K2^KD R213A mutant (Homo sapiens, UniProt O43314, R213A); design: method as in Weaver et al., 2013; details: R213A mutation; ref Weaver et al., 2013; cited from earlier work
T2 construct: The kinase domain of human PPIP5K2 (PPIP5K2^KD; residues 1–366); made in house
T2 sequence (O43314 1-366 R213A): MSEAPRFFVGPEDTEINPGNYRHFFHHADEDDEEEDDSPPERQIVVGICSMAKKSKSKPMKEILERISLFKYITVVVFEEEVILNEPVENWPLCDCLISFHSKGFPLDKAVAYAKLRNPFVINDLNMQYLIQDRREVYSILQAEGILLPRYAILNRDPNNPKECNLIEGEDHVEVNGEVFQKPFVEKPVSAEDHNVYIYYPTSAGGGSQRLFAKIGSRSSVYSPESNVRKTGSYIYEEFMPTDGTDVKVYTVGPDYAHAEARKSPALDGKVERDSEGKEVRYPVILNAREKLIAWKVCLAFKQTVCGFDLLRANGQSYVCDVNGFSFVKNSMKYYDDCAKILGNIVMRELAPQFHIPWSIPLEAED

human PPIP5K2^KD = biological target: T3, human PPIP5K2^KD (Homo sapiens, UniProt O43314); design: method as in Weaver et al., 2013; details: ref Weaver et al., 2013; cited from earlier work
T3 construct: The kinase domain of human PPIP5K2 (PPIP5K2^KD; residues 1–366); made in house
T3 sequence (O43314 1-366): T2 sequence (O43314 1-366 R213A) with A213R

[1] = biological target: T4, PPIP5K2^KD (kinase domain of human PPIP5K2) (Homo sapiens, UniProt O43314); design: method as in Weaver et al., 2013; details: 25 μM; ref Weaver et al., 2013; cited from earlier work
T4 construct: The kinase domain of human PPIP5K2 (PPIP5K2^KD; residues 1–366); made in house
T4 sequence (O43314 1-366): T2 sequence (O43314 1-366 R213A) with A213R

O=P(O)(O)O[C@H]1[C@H](OP(=O)(O)O)[C@@H](OP(=O)(O)O)[C@H](OP(=O)(O)O)[C@@H](OP(=O)(O)O)[C@H]1OP(=O)(O)O [InsP6]
affinity of IP6K2 for InsP6 (human IP6K2): 430 nM | InsP6-stimulated ATPase activity (in words) (PPIP5K2^KD R213A mutant): abolished | affinity for InsP6 phosphorylation by PPIP5K2^KD (human PPIP5K2^KD): 390 nM | activation of substrate-stimulated ATPase activity [1]: 2- to 3 fold
